Data: PubChem BioAssay AID330 (DTP/NCI, 2004)
Several values for one entry are separate records, joined by “and”; a condition that tells them apart may be missing. Identical values can stand only once. Toxic doses and inconclusive results are not listed. Rule for the calls: active = survival T/C of 150% or more; inactive = T/C below 125% in these data.

Test system: P388 leukemia ip, CD2F1 mice, survival T/C
Assay: NCI In Vivo Anticancer Drug Screen. Data for tumor model P388 Leukemia (intraperitoneal) in CD2F1 (CDF1) mice
Conditions: endpoint: median survival time, higher = longer survival
In short: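 Mice carrying the transplanted tumor received test compound or vehicle. Survival was recorded in each group, and the value is the treated-group measurement divided by that of the vehicle-treated control group.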

Measured: T/C

COc1cccc2c1C(=O)c1c(O)c3c(c(O)c1C2=O)C[C@@](O)(C(=O)CO)C[C@@H]3OC1CC(N)C(O)C(C)O1 (stereo partly drawn)
active: dose: 0.13 mg/kg/injection, schedule: Q01DX009 (ip), vehicle: water 162 % of control | dose: 0.25 mg/kg/injection, schedule: Q01DX005 (ip), vehicle: water 153 % of control and 160 % of control and 161 % of control | dose: 0.3 mg/kg/injection, schedule: Q04DX003 (ip), vehicle: water 153 % of control | dose: 0.38 mg/kg/injection, schedule: Q01DX009 (ip), vehicle: water 151 % of control | dose: 0.44 mg/kg/injection, schedule: Q04DX003 (ip), vehicle: saline 158 % of control | dose: 0.58 mg/kg/injection, schedule: Q04DX003 (ip), vehicle: saline 159 % of control | dose: 0.62 mg/kg/injection, schedule: Q01DX001 (ip), vehicle: water 159 % of control | dose: 0.63 mg/kg/injection, schedule: Q01DX001 (ip), vehicle: water 154 % of control | dose: 0.97 mg/kg/injection, schedule: Q04DX002 (ip), vehicle: saline 157 % of control and 160 % of control | dose: 0.97 mg/kg/injection, schedule: Q04DX003 (ip), vehicle: water 163 % of control | dose: 1.04 mg/kg/injection, schedule: Q04DX002 (ip), vehicle: saline 161 % of control | dose: 1.08 mg/kg/injection, schedule: Q04DX003 (ip), vehicle: saline 159 % of control | dose: 1.3 mg/kg/injection, schedule: Q01DX001 (ip), vehicle: water 156 % of control | dose: 1.8 mg/kg/injection, schedule: Q01DX001 (ip), vehicle: saline 154 % of control | dose: 2.0 mg/kg/injection, schedule: Q01DX001 (ip), vehicle: DMSO 157 % of control | dose: 2.0 mg/kg/injection, schedule: Q03HX008 (ip), vehicle: saline 162 % of control | dose: 2.1 mg/kg/injection, schedule: Q01DX004 (ip), vehicle: saline 161 % of control | dose: 2.59 mg/kg/injection, schedule: Q01DX001 (ip), vehicle: saline 160 % of control | dose: 3.0 mg/kg/injection, schedule: Q01DX001 (ip), vehicle: saline 154 % of control | dose: 3.7 mg/kg/injection, schedule: Q01DX001 (ip), vehicle: saline 153 % of control | dose: 4.0 mg/kg/injection, schedule: Q01DX001 (ip), vehicle: DMSO 162 % of control | dose: 4.5 mg/kg/injection, schedule: Q04DX003 (iv), vehicle: saline 163 % of control | dose: 4.75 mg/kg/injection, schedule: Q01DX001 (ip), vehicle: saline 163 % of control | dose: 5.4 mg/kg/injection, schedule: Q04DX003 (ip), vehicle: saline 150 % of control | dose: 6.0 mg/kg/injection, schedule: Q04DX003 (ip), vehicle: water 154 % of control | dose: 11.25 mg/kg/injection, schedule: Q01DX001 (iv), vehicle: saline 156 % of control | dose: 15.0 mg/kg/injection, schedule: Q04DX003 (iv), vehicle: saline 153 % of control | dose: 16.0 mg/kg/injection, schedule: Q01DX001 (ip), vehicle: saline with Tween-80 151 % of control | dose: 17.5 mg/kg/injection, schedule: Q01DX001 (ip), vehicle: saline 150 % of control | dose: 32.0 mg/kg/injection, schedule: Q01DX001 (ip), vehicle: saline with Tween-80 161 % of control
inactive: dose: 0.04 mg/kg/injection, schedule: Q04DX003 (ip), vehicle: saline 116 % of control | dose: 0.04 mg/kg/injection, schedule: Q04DX003 (ip), vehicle: water 115 % of control | dose: 0.06 mg/kg/injection, schedule: Q01DX005 (sc), vehicle: water 100 % of control | dose: 0.06 mg/kg/injection, schedule: Q03HX008 (ip), vehicle: saline 114 % of control | dose: 0.06 mg/kg/injection, schedule: Q04DX003 (ip), vehicle: water 122 % of control | dose: 0.1 mg/kg/injection, schedule: Q04DX003 (ip), vehicle: water 121 % of control | dose: 0.12 mg/kg/injection, schedule: Q01DX005 (sc), vehicle: water 101 % of control | dose: 0.13 mg/kg/injection, schedule: Q03HX008 (ip), vehicle: saline 116 % of control | dose: 0.25 mg/kg/injection, schedule: Q01DX001 (ip), vehicle: Klucel (hydroxypropylcellulose) (HPC) 108 % of control | dose: 0.25 mg/kg/injection, schedule: Q01DX001 (ip), vehicle: saline with Tween-80 112 % of control | dose: 0.25 mg/kg/injection, schedule: Q01DX001 (ip), vehicle: saline 105 % of control | dose: 0.25 mg/kg/injection, schedule: Q01DX005 (sc), vehicle: water 103 % of control | dose: 0.38 mg/kg/injection, schedule: Q04DX003 (ip), vehicle: water 103 % of control | dose: 0.5 mg/kg/injection, schedule: Q01DX001 (ip), vehicle: Klucel (hydroxypropylcellulose) (HPC) 112 % of control | dose: 0.5 mg/kg/injection, schedule: Q01DX001 (ip), vehicle: saline with Tween-80 115 % of control | dose: 0.5 mg/kg/injection, schedule: Q01DX005 (oral), vehicle: water 108 % of control | dose: 0.5 mg/kg/injection, schedule: Q01DX005 (sc), vehicle: water 108 % of control | dose: 0.75 mg/kg/injection, schedule: Q04DX003 (ip), vehicle: water 118 % of control | dose: 1.0 mg/kg/injection, schedule: Q01DX001 (ip), vehicle: Klucel (hydroxypropylcellulose) (HPC) 110 % of control | dose: 1.0 mg/kg/injection, schedule: Q01DX001 (ip), vehicle: saline with Tween-80 119 % of control | dose: 1.0 mg/kg/injection, schedule: Q01DX001 (iv), vehicle: saline 113 % of control | dose: 1.0 mg/kg/injection, schedule: Q01DX005 (oral), vehicle: water 112 % of control | dose: 1.0 mg/kg/injection, schedule: Q01DX005 (sc), vehicle: water 113 % of control | dose: 1.0 mg/kg/injection, schedule: Q04DX003 (iv), vehicle: saline 100 % of control | dose: 1.5 mg/kg/injection, schedule: Q04DX003 (ip), vehicle: water 117 % of control and 120 % of control | dose: 2.0 mg/kg/injection, schedule: Q01DX001 (ip), vehicle: Klucel (hydroxypropylcellulose) (HPC) 122 % of control | dose: 2.0 mg/kg/injection, schedule: Q01DX001 (iv), vehicle: saline 108 % of control | dose: 2.0 mg/kg/injection, schedule: Q01DX005 (oral), vehicle: water 104 % of control | dose: 2.0 mg/kg/injection, schedule: Q04DX003 (iv), vehicle: saline 114 % of control | dose: 3.0 mg/kg/injection, schedule: Q04DX003 (ip), vehicle: water 120 % of control | dose: 4.0 mg/kg/injection, schedule: Q01DX001 (ip), vehicle: saline with Tween-80 122 % of control | dose: 4.0 mg/kg/injection, schedule: Q01DX001 (iv), vehicle: saline 123 % of control | dose: 4.0 mg/kg/injection, schedule: Q01DX005 (oral), vehicle: water 105 % of control | dose: 5.0 mg/kg/injection, schedule: Q01DX009 (ip), vehicle: saline 98 % of control and 105 % of control | dose: 5.4 mg/kg/injection, schedule: Q04DX003 (ip), vehicle: water 115 % of control | dose: 6.0 mg/kg/injection, schedule: Q04DX003 (oral), vehicle: saline 98 % of control | dose: 6.33 mg/kg/injection, schedule: Q01DX001 (iv), vehicle: saline 116 % of control | dose: 8.0 mg/kg/injection, schedule: Q01DX001 (oral), vehicle: saline 98 % of control | dose: 8.0 mg/kg/injection, schedule: Q01DX005 (oral), vehicle: water 107 % of control | dose: 8.0 mg/kg/injection, schedule: Q04DX002 (ip), vehicle: saline 108 % of control | dose: 10.0 mg/kg/injection, schedule: Q04DX003 (oral), vehicle: saline 105 % of control | dose: 12.0 mg/kg/injection, schedule: Q01DX001 (oral), vehicle: saline 106 % of control | dose: 16.0 mg/kg/injection, schedule: Q01DX001 (oral), vehicle: saline 100 % of control | dose: 16.0 mg/kg/injection, schedule: Q01DX005 (oral), vehicle: water 103 % of control | dose: 16.0 mg/kg/injection, schedule: Q04DX003 (iv), vehicle: saline 103 % of control | dose: 16.7 mg/kg/injection, schedule: Q04DX003 (oral), vehicle: saline 107 % of control and 112 % of control | dose: 20.0 mg/kg/injection, schedule: Q01DX001 (oral), vehicle: saline 103 % of control | dose: 27.8 mg/kg/injection, schedule: Q04DX003 (oral), vehicle: saline 100 % of control and 106 % of control | dose: 32.0 mg/kg/injection, schedule: Q01DX001 (ip), vehicle: Klucel (hydroxypropylcellulose) (HPC) 112 % of control | dose: 32.0 mg/kg/injection, schedule: Q01DX001 (oral), vehicle: saline 100 % of control | dose: 33.3 mg/kg/injection, schedule: Q01DX001 (oral), vehicle: saline 99 % of control and 106 % of control | dose: 46.3 mg/kg/injection, schedule: Q04DX003 (oral), vehicle: saline 103 % of control and 112 % of control | dose: 64.0 mg/kg/injection, schedule: Q01DX001 (oral), vehicle: saline 107 % of control | dose: 77.2 mg/kg/injection, schedule: Q04DX003 (oral), vehicle: saline 101 % of control | dose: 92.6 mg/kg/injection, schedule: Q01DX001 (oral), vehicle: saline 106 % of control | dose: 128.0 mg/kg/injection, schedule: Q01DX001 (oral), vehicle: saline 100 % of control | dose: 128.6 mg/kg/injection, schedule: Q04DX003 (oral), vehicle: saline 99 % of control | dose: 154.3 mg/kg/injection, schedule: Q01DX001 (oral), vehicle: saline 101 % of control
